Reference: patent US9173842B2, “Stable pharmaceutical composition comprising a hydrosoluble vinflunine salt” (PIERRE FABRE MEDICAMENT, priority 2007, dated 2015)

Assay: Stability tests at 5° C. and 25° C. under sealed conditions after 3 months (impurity content)
Type: physicochemical
Details: sealed packaging, % of the total weight of the composition
Method: The composition in the forms of capsule A and B were packaged in sealed packers. They were stored for 3 months at 5° C. at an external humidity level of 20%, or at 25° C. at an external humidity level of 60%.
The weight content in impurities (in % of the total weight of the composition) was assayed immediately […], then after 3 months of storage. The difference between these two percentages gives the change in impurity content.
It is compared to that obtained for freeze-dried vinflunine ditartrate stored under the same conditions.

vinflunine ditartrate
Changes in impurity levels at 5° C. (3 months at 5° C., external humidity 20%): +0.8% | Changes in impurity levels at 25° C. (3 months at 25° C., external humidity 60%): +1.9%
